{"source": "paper PMC8149581", "about": "(Chemistry of Heterocyclic Compounds, 2021)"}
{"test_system": "influenza A/Puerto Rico/8/34 (H1N1) virus", "type": "cell-based", "units": {"IC50 (antiviral activity)": "µg/mL"}}
{"smiles": "Nc1c(Br)cc([N+](=O)[O-])cc1-c1nnn(C23CC4CC(CC(C4)C2)C3)n1", "note": "[Compound 3h, 2-[2-(Adamantan-1-yl)-2 H -tetrazol-5-yl]-6-bromo-4-nitroaniline]", "IC50 (antiviral activity)": "15 ± 3"}
{"smiles": "Nc1cc(-c2nnn(C34CC5CC(CC(C5)C3)C4)n2)ccc1O", "note": "[Compound 3i, 4-[2-(Adamantan-1-yl)-2 H -tetrazol-5-yl]-2-aminophenol]", "IC50 (antiviral activity)": "15 ± 2"}
{"smiles": "CC(N)C12CC3CC(CC(C3)C1)C2", "note": "(stereo not drawn) [Rimantadine, reference compound]", "IC50 (antiviral activity)": "12 ± 2"}
